Data: PMC11743598, “Identification of a binding site for small molecule inhibitors targeting human TRPM4” (Nature Communications, 2025)

Target: T1, HsTRPM4 (Homo sapiens, UniProt Q8TD43)
T1 construct: gene TRPM4; full-length, wild-type codon-optimized gene, C-terminal HA and FLAG tags, pcDNA3.1; patch clamp in transiently transfected cells (TsA-201); cryo-EM from HEK293F, SMA native nanodiscs, C4 symmetry (homotetramer)
Assay: cryo-EM structure, […] A
Type: binding
Conditions: endogenous lipid assigned from density, three sites per protomer, SMA native nanodiscs

T1 sequence (Q8TD43 whole entry): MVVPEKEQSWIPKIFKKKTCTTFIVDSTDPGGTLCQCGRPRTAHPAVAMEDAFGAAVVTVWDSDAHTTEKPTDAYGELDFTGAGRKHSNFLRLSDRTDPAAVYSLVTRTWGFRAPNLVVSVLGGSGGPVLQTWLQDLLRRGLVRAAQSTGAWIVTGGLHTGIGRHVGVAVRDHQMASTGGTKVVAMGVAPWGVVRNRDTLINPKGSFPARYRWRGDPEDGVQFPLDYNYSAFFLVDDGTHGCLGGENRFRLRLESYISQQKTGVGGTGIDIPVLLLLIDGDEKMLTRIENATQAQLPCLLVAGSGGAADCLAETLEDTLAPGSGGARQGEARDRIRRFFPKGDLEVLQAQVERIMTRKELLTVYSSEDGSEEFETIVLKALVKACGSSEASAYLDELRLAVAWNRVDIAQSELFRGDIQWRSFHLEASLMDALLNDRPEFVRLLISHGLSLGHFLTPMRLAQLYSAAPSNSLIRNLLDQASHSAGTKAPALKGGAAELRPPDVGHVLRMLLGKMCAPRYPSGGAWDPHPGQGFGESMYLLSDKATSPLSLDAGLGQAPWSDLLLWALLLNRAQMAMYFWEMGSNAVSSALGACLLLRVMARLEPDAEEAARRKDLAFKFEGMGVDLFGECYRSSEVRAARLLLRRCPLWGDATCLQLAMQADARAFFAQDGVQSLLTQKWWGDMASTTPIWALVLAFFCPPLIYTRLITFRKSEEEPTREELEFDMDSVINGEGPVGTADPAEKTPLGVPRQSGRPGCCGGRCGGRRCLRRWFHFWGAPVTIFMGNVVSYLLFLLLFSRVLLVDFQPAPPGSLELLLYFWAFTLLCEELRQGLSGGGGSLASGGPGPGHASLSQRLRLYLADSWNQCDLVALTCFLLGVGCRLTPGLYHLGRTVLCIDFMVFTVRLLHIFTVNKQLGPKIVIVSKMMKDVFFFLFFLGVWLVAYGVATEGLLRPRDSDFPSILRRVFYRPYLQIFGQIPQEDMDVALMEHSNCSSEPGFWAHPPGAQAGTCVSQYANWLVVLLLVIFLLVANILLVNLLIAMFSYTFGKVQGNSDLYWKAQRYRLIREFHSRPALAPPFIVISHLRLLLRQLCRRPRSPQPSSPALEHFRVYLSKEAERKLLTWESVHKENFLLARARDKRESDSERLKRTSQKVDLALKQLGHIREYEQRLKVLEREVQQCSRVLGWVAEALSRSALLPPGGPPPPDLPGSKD

## CC(C)CCC[C@@H](C)[C@H]1CC[C@H]2[C@@H]3CC=C4C[C@@H](O)CC[C@]4(C)[C@H]3CC[C@]12C [cholesterol]
  cryo-EM structure, 3.67 A: primarily three densities for cholesterol molecules bound to TRPM4 observed
